# Reference: patent US20250195549A1, “NEW USE” (Kancera AB, priority 2023, published 2025)
# What was measured:
# [1] = tested on: ST-elevation myocardial infarction (STEMI) patients undergoing percutaneous coronary intervention; experiment: FRACTAL phase IIa clinical study: left ventricular thrombus and intramyocardial haemorrhage by CMR and/or echocardiogram on day 3; type: in vivo, human; conditions: treatment group vs placebo, day 3 of the treatment
# From the text: (§1) The FRACTAL (FRACTalkine inhibition in Acute myocardial infarction) study was designed as a phase Iia, randomised, two-arm parallel-group, placebo-controlled, double-blind, multi-centre trial. The trial was primarily intended to assess the safety tolerability of intravenous and oral administration of (2R)-2-[(2-amino-5-{[(1S)-1-phenylethyl]thio}[1,3]thiazolo[4,5-d]pyrimidin-7-yl)amino]-4-methylpentan-1-ol (KAND567) (hydrochloride salt) (′investigational medicinal product (IMP)′; structure below)
# in ST-elevation myocardial infarction (STEMI) patients undergoing percutaneous coronary intervention. For this, a cohort of 71 STEMI patients were admitted into two large tertiary centres in the United Kingdom. Secondary endpoints included investigating the anti-inflammatory and cardioprotective effects of the treatment. […]
# (§2) The primary outcome of the study was safety, but a number of key secondary outcomes being assessed in parallel. Blood samples at nine different time points were used to assess any changes in the immune compartment as well as in inflammatory markers, and the cardioprotective effects of KAND567, as measured by gadolinium-contrast Cardiac Magnetic Resonance (CMR) (Cardiac MRI), were assessed as an additional secondary end point. […]
# [2] = tested on: rat myocardial infarction model; conditions: rat model without antiplatelet or anticoagulant co-treatment; cited from earlier work
# [3] = FRACTAL clinical study: steady state concentration during IV infusion; type: in vivo, human; conditions: IV infusion over 6 hours, total dose 134 mg; in the blood
# Experimental: The IMP and placebo (IMP 7.5 mg/mL solution (comprising 7.5 mg/mL IMP, Kleptose HP, sodium chloride and disodium phosphate in water for injection) added to 250 mL sodium chloride 0.9%, placebo solution as IMP solution but without active ingredient) were administered intravenously over a 6 hour period, at the rate summarised in the table below.
# • Infusion of the initial bolus dose (approximately 10 mg of the active ingredient) was commenced at least 2 minutes before initiation of PCI. • Reperfusion of the occluded vessel was then initiated by advancing a coronary wire past the occluded or partially occluded site, followed by either balloon angioplasty, thrombectomy or stenting, according to routine clinical care. • IV infusion was then continued over 6 hours with an estimated steady state concentration of 1.5 µM (the rate of infusion was adjusted 3 hours after the start of the bolus dose, to achieve a steady concentration in the blood). The same IV solution was used throughout to give a total dose of 134 mg of the active ingredient over the 6-hour infusion time; placebo solution as IMP solution but without active ingredient). • If required, a bridging peroral dose of 0 to 4 capsules (50 mg capsules of IMP (white, size 1, hard capsules) or matching placebo) was administered depending on timing of presenting at the hospital. […]
# [4] = tested on: ST-elevation myocardial infarction (STEMI) patients undergoing percutaneous coronary intervention; experiment: FRACTAL clinical study: infarct size by late gadolinium-enhanced (LGE) MRI at day 90; type: in vivo, human; conditions: for Infarct size, GAD5-SD(%): LGE MRI at day 90, average, N in brackets
# Experimental: Every patient received a baseline CMR scan on day 3 post myocardial infarction, followed by a subsequent scan after 3 months. Image analysis was performed by a
# Additionally, the size of the myocardial infarction was assessed using late gadolinium-enhanced (LGE) magnetic resonance imaging (MRI) at day 90 to compare infarct size in patients administered the placebo or the IMP, using a thresholding of 5 standard deviations above the mean signal intensity from normal myocardium.
# The average infarct size for patients with and without intramyocardial haemorrhage in the placebo and treatment groups is shown in the table below.
# [5] = tested on: ST-elevation myocardial infarction (STEMI) patients undergoing percutaneous coronary intervention; experiment: FRACTAL clinical study: safety, tolerability and bleeding; type: in vivo, human
# From the text: as §1
# Following angiography and final confirmation of eligibility, patients were randomised to receive the intravenous (IV) bolus of either investigational medicinal product (IMP) or placebo. To avoid delivery of the IMP after reperfusion of the occluded vessel, percutaneous coronary intervention (PCI) was only commenced following the intravenous bolus of IMP/placebo. Patients then completed the remainder of their IMP infusion over 6 h. […]
# as §2
smiles,measurement,setting,value
"CC(C)C[C@H](CO)Nc1nc(S[C@@H](C)c2ccccc2)nc2nc(N)sc12 [KAND567, (2R)-2-[(2-amino-5-{[(1S)-1-phenylethyl]thio}[1,3]thiazolo[4,5-d]pyrimidin-7-yl)amino]-4-methylpentan-1-ol]",intramyocardial haemorrhage (in words),[1],significant reduction
same,left ventricular thrombus (in words),[1],significant reduction
same,infarct size,[2],reduce
same,inflammation,[2],reduce
same,intramyocardial haemorrhage,[2],reduce
same,estimated steady state concentration,[3],1.5 UM
same,infarct size compared to the placebo group (in words),"[4]; day 90, beyond the benefit of avoiding intramyocardial hemorrhage",further reduction
same,"Infarct size, GAD5-SD(%)","[4]; patients with intramyocardial hemorrhage, T-test vs placebo p = 0.81",30.8 (11) %
same,"Infarct size, GAD5-SD(%)","[4]; patients without intramyocardial hemorrhage, T-test vs placebo p = 0.15",17.8 (16) %
same,safety and tolerability,[5]; intravenous and oral administration in STEMI patients,safe and well-tolerated
same,incidence of bleeding,[5]; treatment group vs placebo,no increased incidence of bleeding
